Data on 3 compounds can be found in patent US20100144818A1, “1-BENZYLPYRAZOLE DERIVATIVES, PREPARATION THEREOF AND THERAPEUTIC USE THEREOF” (SANOFI-AVENTIS, priority 2007, published 2010).

A short description of data set [1]: Model of passage through the intestinal barrier constituted of Caco-2 cells. The data set is classed as in vitro ADME. The conditions noted are these: human, concentration=20 μM, apical pH=6.5 and basal pH=7.4, read-out: Ptot, coefficient of apparent permeability for the monolayer of intestinal epithelial cells plus filter. From the text:
The compounds according to the invention were investigated on a model of passage through the intestinal barrier constituted of Caco-2 cells. (M. C. Grès, Pharm. Res., 1998, 15(5), 726-733). This model makes it possible to define the coefficient Ptot of apparent permeability of the product for the monolayer of intestinal epithelial cells plus filter. As examples, compounds No. 60 (ex. 5) and No. 90 (ex. 7) have, in this model, a Ptot of 111.97 and 64.5 respectively (10^−7 cm·s^−1; concentration=20 μM; apical pH=6.5 and basal pH=7.4). These values are predictive of total absorption in humans, after administration by the oral route.
On the technique in general: Caco-2 monolayers are a common model of the intestinal barrier.

By melting point is commonly meant the temperature of the solid-liquid transition.

`CC(C)(C)C(=O)NCc1cc(-c2ccc(Cl)c(Cl)c2)n(Cc2ccc(Cl)c(Cl)c2)n1` [Compound 60, N-((1-(3,4-Dichlorobenzyl)-5-(3,4-dichlorophenyl)-1H-pyrazol-3-yl)methyl)-2,2-dimethylpropanamide]: the Papp at 20 μM in data set [1] was 11.2 ×10⁻⁶ cm/s. For `Cc1ccc(Cn2nc(CNC(=O)NC(C)(C)C)cc2-c2ccc(Cl)c(Cl)c2)cc1Cl` [Compound 81, N-(tert-Butyl)-N′-((1-(3-chloro-4-methylbenzyl)-5-(3,4-dichlorophenyl)-1H-pyrazol-3-yl)methyl)urea], the melting point was 181 °C. Compound `CC(C)(C)S(=O)(=O)NCc1cc(-c2ccc(Cl)c(Cl)c2)n(Cc2ccc(Cl)c(Cl)c2)n1` [Compound 90, N-((1-(3,4-Dichlorobenzyl)-5-(3,4-dichlorophenyl)-1H-pyrazol-3-yl)methyl)-2-methylpropane-2-sulfonamide] registered a melting point of 127 °C. In data set [1], the Papp at 20 μM stood at 6.45 ×10⁻⁶ cm/s.
